# Measurements taken from patent US8198456B2, “Dihydropyridine derivatives as useful as protein kinase inhibitors” (Bayer Intellectual Property GmbH, priority 2006, dated 2012).
# Legend:
# [1] = target: T1, recombinant human c-MET kinase enzyme domain (Homo sapiens, UniProt P08581); assay: c-MET receptor tyrosine kinase Homogeneous Time Resolved Fluorescence assay (HTRF); assay type: biochemical; conditions: Biological Example 1 and/or Biological Example 2
# T1 construct: Recombinant c-Met kinase domain (amino acids 960-1390); His (N); made in house; host or cells: baculovirus expression system (insect cells; SF21 is named only for the alternative format)
# T1 sequence (P08581 960-1390): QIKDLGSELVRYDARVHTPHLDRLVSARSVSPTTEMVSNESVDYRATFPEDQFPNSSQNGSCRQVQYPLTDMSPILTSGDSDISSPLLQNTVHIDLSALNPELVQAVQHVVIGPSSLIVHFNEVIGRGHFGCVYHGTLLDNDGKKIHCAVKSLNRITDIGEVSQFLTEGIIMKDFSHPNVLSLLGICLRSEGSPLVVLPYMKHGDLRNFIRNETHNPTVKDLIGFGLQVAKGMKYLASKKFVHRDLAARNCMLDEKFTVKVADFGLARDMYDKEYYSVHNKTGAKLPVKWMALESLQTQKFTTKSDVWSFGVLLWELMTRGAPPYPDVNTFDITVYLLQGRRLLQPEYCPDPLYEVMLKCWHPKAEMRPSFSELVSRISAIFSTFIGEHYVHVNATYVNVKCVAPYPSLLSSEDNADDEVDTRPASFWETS
# Procedure, shortened: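 His-tagged c-Met kinase domain (aa 960-1390, baculovirus) phosphorylated biotinylated poly-Glu-Tyr (37 nM) with 20 μM ATP in HEPES pH 7.4, Mg/Mn, DTT, 1% DMSO, 20 min at ambient temperature, EDTA-stopped. HTRF read (PT66-Eu/streptavidin-XL665, 665/620 nm ratio) after 4 h; IC50 from eight 1:3.16 dilutions.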
SMILES,IC50 [1],melting point
"CCNc1n[nH]c2ccc(C3C(C#N)=C(C)NC(C)=C3C#N)cc12 [compound 121, 4-[3-(ethylamino)-1H-indazol-5-yl]-1,4-dihydro-2,6-dimethyl-3,5-pyridinedicarbonitrile]",< 100 nM,247.6 °C
"CC1=C(C#N)C(c2ccc3[nH]ncc3c2)C(C#N)=C(c2ccc(NCCN3CCOCC3)nc2)N1 (stereo not shown) [compound 274, 1,4-dihydro-4-(1H-indazol-5-yl)-6-methyl-6′-[[2-(4-morpholinyl)ethyl]amino]-[2,3′-bipyridine]-3,5-dicarbonitrile]",< 100 nM,
CC1=C(C#N)C(c2ccc3[nH]ncc3c2)C(C#N)=C(c2ccc(NCCN(C)C)nc2)N1 (stereo not shown) [compound 275],< 100 nM,
"CC1=C(C#N)C(c2ccc3[nH]ncc3c2)C(C#N)=C(c2ccnc(Cl)c2)N1 (stereo not shown) [compound 276, 2′-chloro-1,4-dihydro-4-(1H-indazol-5-yl)-6-methyl-[2,4′-bipyridine]-3,5-dicarbonitrile]",< 100 nM,
"CC1=C(C#N)C(c2ccc3[nH]ncc3c2)C(C#N)=C(c2ccnc(NCCN3CCOCC3)c2)N1 (stereo not shown) [compound 278, 1,4-dihydro-4-(1H-indazol-5-yl)-6-methyl-2′-[[2-(4-morpholinyl)ethyl]amino]-[2,4′-bipyridine]-3,5-dicarbonitrile]",< 100 nM,
"CC1=C(C#N)C(c2ccc3[nH]nc(N)c3c2)C(C#N)=C(c2cc(C)oc2C)N1 (stereo not shown) [compound 281, 4-(3-amino-1H-indazol-5-yl)-2-(2,5-dimethyl-3-furanyl)-1,4-dihydro-6-methyl-3,5-pyridinedicarbonitrile]",< 100 nM,
"CC1=C(C#N)C(c2ccc3[nH]nc(N)c3c2)C(C#N)=C(c2ccoc2C)N1 (stereo not shown) [compound 282, 4-(3-amino-1H-indazol-5-yl)-1,4-dihydro-2-methyl-6-(2-methyl-3-furanyl)-3,5-pyridinedicarbonitrile]",< 100 nM,
"COC(=O)c1cccc(C2C(C#N)=C(C)N(C)C(C)=C2C#N)c1 [compound 284, 3-(3,5-dicyano-1,4-dihydro-1,2,6-trimethyl-4-pyridinyl)-benzoic acid, methyl ester]",500 to 2500 nM,
"CC1=C(C#N)C(c2ccc3[nH]nc(N)c3c2)C(C#N)=C(C)N1C [compound 288, 4-(3-amino-1H-indazol-5-yl)-1,4-dihydro-1,2,6-trimethyl-3,5-pyridinedicarbonitrile]",< 100 nM,
"CC1=C(C#N)C(c2ccc3[nH]ncc3c2)C(C#N)=C(C)N1C [compound 289, 1,4-dihydro-4-(1H-indazol-5-yl)-1,2,6-trimethyl-3,5-pyridinedicarbonitrile]",< 100 nM,
"CCOC(=O)CN1C(C)=C(C#N)C(c2ccc3[nH]ncc3c2)C(C#N)=C1C [compound 290, 3,5-dicyano-4-(1H-indazol-5-yl)-2,6-dimethyl-1(4H)-pyridineacetic acid ethyl ester]",< 100 nM,

# Other lines, results leading:
IC50 [1],melting point,SMILES
< 100 nM,,"CC1=C(C#N)C(c2ccc3[nH]ncc3c2)C(C#N)=C(C)N1CCO [compound 292, 1,4-dihydro-1-(2-hydroxyethyl)-4-(1H-indazol-5-yl)-2,6-dimethyl-3,5-pyridinedicarbonitrile]"
< 100 nM,,"CC1=C(C#N)C(c2ccc3[nH]nc(N)c3c2)C(C#N)=C(C)N1Cc1ccccc1 [compound 293, 4-(3-amino-1H-indazol-5-yl)-1,4-dihydro-2,6-dimethyl-1-(phenylmethyl)-3,5-pyridinedicarbonitrile]"
< 100 nM,,"CCN1C(C)=C(C#N)C(c2ccc3[nH]nc(N)c3c2)C(C#N)=C1C [compound 294, 1-ethyl-4-(3-amino-1H-indazol-5-yl)-1,4-dihydro-2,6-dimethyl-3,5-pyridinedicarbonitrile]"
< 100 nM,,"CC1=C(C#N)C(c2ccc3[nH]nc(Cl)c3c2)C(C#N)=C(C)N1CCO [compound 297, 4-(3-chloro-1H-indazol-5-yl)-1,4-dihydro-1-(2-hydroxyethyl)-2,6-dimethyl-3,5-pyridinedicarbonitrile]"
< 100 nM,,"CC1=C(C#N)C(c2ccc3[nH]nc(Cl)c3c2)C(C#N)=C(C)N1C [compound 298, 4-(3-chloro-1H-indazol-5-yl)-1,4-dihydro-1,2,6-trimethyl-3,5-pyridinedicarbonitrile]"
< 100 nM,,"CC1=C(C#N)C(c2ccc3[nH]nc(N)c3c2)C(C#N)=C(C)N1CCO [compound 299, 4-(3-amino-1H-indazol-5-yl)-1,4-dihydro-1-(2-hydroxyethyl)-2,6-dimethyl-3,5-pyridinedicarbonitrile]"
< 100 nM,,"CC1=C(C#N)C(c2ccc3[nH]nc(C)c3c2)C(C#N)=C(C)N1C1CC1 [compound 301, 1-cyclopropyl-1,4-dihydro-2,6-dimethyl-4-(3-methyl-1H-indazol-5-yl)-3,5-pyridinedicarbonitrile]"
< 100 nM,,"C#CCN1C(C)=C(C#N)C(c2ccc3[nH]ncc3c2)C(C#N)=C1C [compound 302, 1,4-dihydro-4-(1H-indazol-5-yl)-2,6-dimethyl-1-(2-propynyl)-3,5-pyridinedicarbonitrile]"
< 100 nM,,"CC1=C(C#N)C(c2ccc3[nH]ncc3c2)C(C#N)=C2CCCCN12 (stereo not shown) [compound 304, 6,7,8,9-tetrahydro-2-(1H-indazol-5-yl)-4-methyl-2H-quinolizine-1,3-dicarbonitrile]"
< 100 nM,,"CC1=C(C#N)C(c2ccc3[nH]nc(C)c3c2)C(C#N)=C(C)N1C [compound 306, 1,4-dihydro-1,2,6-trimethyl-4-(3-methyl-1H-indazol-5-yl)-3,5-pyridinedicarbonitrile]"
< 100 nM,,"CC1=C(C#N)C(c2ccc3[nH]nc(NCCN4CCOCC4)c3c2)C(C#N)=C(C)N1 [compound 307, 1,4-dihydro-2,6-dimethyl-4-[3-[[2-(4-morpholinyl)ethyl]amino]-1H-indazol-5-yl]-3,5-pyridinedicarbonitrile]"
< 100 nM,,"CC1=C(C#N)C(c2ccc3[nH]nc(NCCN)c3c2)C(C#N)=C(C)N1 [compound 308, 4-[3-[(2-aminoethyl)amino]-1H-indazol-5-yl]-1,4-dihydro-2,6-dimethyl-3,5-pyridinedicarbonitrile]"
< 100 nM,,"CC1=C(C#N)C(c2ccc3[nH]nc(NCCN4CCCC4)c3c2)C(C#N)=C(C)N1 [compound 309, 1,4-dihydro-2,6-dimethyl-4-[3-[[2-(1-pyrrolidinyl)ethyl]amino]-1H-indazol-5-yl]-3,5-pyridinedicarbonitrile]"
